First: O=C1c2ccccc2C2(O)Oc3cc4ccccc4cc3C12O (stereo not given)
Second: N#Cc1ccccc1-c1ccc2cc(CBr)ccc2c1
The melting point of the first is higher: 220 to 221 °C for the first, 171 to 172 °C for the second.

First: CCCCCCCNC(=O)Nc1ccccc1C(=O)NC1CCN(Cc2c(C(C)C)nc(C(C)C)c(COC)c2-c2ccc(F)cc2)CC1
Second: CC(C)[C@H](NC(=O)OCc1ccccc1)C(=O)OCc1nc2c(N)nc3ccccc3c2n1CCCCNS(C)(=O)=O
The melting point of the first is higher: 123 °C for the first, 99 to 100 °C for the second.

Compared with `Cc1nnc(COc2cccc(NC(=O)N(C)C)c2)o1`, `Cc1oc(-c2ccccc2)nc1CCOc1cccc(OC(C)(C)C(=O)O)c1` is higher in melting point: 102 to 105 °C for the first, 140 to 141 °C for the second.

Compared with `CCc1cc2c(cc1O)CCC1C2CCC2(C)C(=CCOC)CCC12` (stereo not given), `Cc1cccc(Sc2ccc3c(c2)CC[C@H]2NC(=O)CC[C@]32C)c1` is higher in melting point: 133 to 134 °C for the first, 189 to 191 °C for the second.

Compared with `CN1CCN(c2cccc(N)c2)C(=O)C1`, `CN1CCN(C(=O)c2cccc3cc[nH]c23)CC1` is higher in melting point: 139 to 140 °C for the first, 176 to 178 °C for the second.

Compared with `COc1ccc(C(=O)C23CCCCC2C(=O)O3)cc1` (stereo not given), `COC(=O)c1ccc2c(c1)OCC(=O)N2` is higher in melting point: 77.5 to 78.5 °C for the first, 258 to 260 °C for the second.

Compared with `O=Cc1ccc2ccc(-c3ccccc3)nc2c1`, `O=Cc1ccc(-c2ccc(Br)cn2)cc1` is higher in melting point: 108 °C for the first, 120 to 121 °C for the second.

First: Cc1c2ccccc2c(-c2ccc(OS(C)(=O)=O)cc2)c2c1sc1ccccc12
Second: CCc1sc2ncnc(N)c2c1-c1ccc(NS(=O)(=O)c2ccccc2)cc1
The melting point of the first is lower: 172 to 173 °C for the first, 209 to 210 °C for the second.

First: O=C(Nc1noc2ccccc12)N1CCN(c2nc(N3CCCCC3)ns2)CC1
Second: O=C(Nc1cccnn1)N1CCN(c2nc(-c3cccc(F)c3)cs2)CC1
The melting point of the first is higher: 214 to 215 °C for the first, 176 to 177 °C for the second.

First: COc1cc(OCc2nc(-c3ccco3)oc2C)ccc1C=O
Second: CCCc1oc(-c2ccccc2)nc1COc1ccc(COc2cccc(CC(=O)O)c2)cc1
The melting point of the first is lower: 111 to 112 °C for the first, 115 to 116 °C for the second.

First: Nc1c(CC(=O)O)cccc1Oc1ccc(Cl)c(Cl)c1
Second: N#CCCNC(=O)c1cccc(-c2ccc3c(c2)N(c2ccc(Cl)c(Cl)c2)CC3)c1
The melting point of the first is lower: 125 to 127 °C for the first, 166 to 196 °C for the second.

First: CCNc1nc(OCc2ccccc2)nc2c1ncn2C1OC(CO)C(O)C1O (stereo not given)
Second: Cc1cc(C)n2nc(SCc3ccccc3)c(C#N)c2n1
The melting point of the first is higher: 170 to 171 °C for the first, 140 °C for the second.

First: CC(C)(C)c1cc(Br)c(O)c(C=O)c1Cl
Second: CC(C)(C)c1cc(CCc2ccccc2NC(=O)NC2CCCCC2)cc(C(C)(C)C)c1O
The melting point of the first is lower: 103 to 105 °C for the first, 198 to 200 °C for the second.

Compared with `Nc1ccc(Oc2ccc(C(=O)c3ccc(C#Cc4ccccc4)cc3)cc2)cc1`, `N#Cc1ccc(OCCCCOc2ccc(-c3cc4ccc(C#N)cc4o3)cc2)cc1` is higher in melting point: 151 to 153 °C for the first, 187 to 189 °C for the second.

Compared with `COc1ccc(N(CCC(=O)N(C)CC(=O)O)C(=O)c2ccc(Cl)cc2)cc1`, `CCOC(=O)c1ccc(NCCOc2ccc(F)cc2)cc1` is lower in melting point: 129 to 131 °C for the first, 122 to 123 °C for the second.

First: COc1cc(OC)nc(NS(=O)(=O)c2ccccc2N(C)S(C)(=O)=O)n1
Second: O=C(O)COc1c(F)cc(SCCNS(=O)(=O)c2ccccc2)cc1F
The melting point of the first is higher: 228 to 230 °C for the first, 91 to 93 °C for the second.

First: CC(C)(O)CCn1c(=O)n(C(=O)N[C@H](C(N)=O)C(C)(C)C)c2ccccc21
Second: Cc1ccccc1CC(=NC#N)NC(NC(=O)CF)C(C)(C)C (stereo not given)
The melting point of the first is higher: 248 °C for the first, 151 to 152 °C for the second.

Compared with `N#Cc1cc(N)ccc1N1CCC(N2CCCCC2)CC1`, `NC(=O)c1ccc(COc2ccc3c(c2)CCN(C2CCN(C4CCC4)CC2)C3=O)cc1` is higher in melting point: 110 to 112 °C for the first, 292 to 293 °C for the second.

First: N#Cc1ccc(C2CCN(Cc3ccccc3)C2)cc1 (stereo not given)
Second: c1ccc(COCC2c3ccccc3-c3ccccc32)cc1
The melting point of the first is higher: 78 to 79 °C for the first, 69.5 to 70 °C for the second.

First: Cn1cc(CN2CCN(CCOc3ccc(C=C4SC(=O)NC4=O)cc3)CC2)c2ccccc21
Second: CN1CCCN(Cc2nc(-c3ccc4c(c3)Nc3ccccc3S4)cs2)CC1
The melting point of the first is higher: 183 to 188 °C for the first, 135 to 137 °C for the second.

First: CCCCCCCCOC(=O)c1[nH]c2cccc3c2c1CCNC3=O
Second: CCCCCCCCCCCCCCCCOCC(=O)O
The melting point of the first is higher: 170 to 171 °C for the first, 64 to 66 °C for the second.

First: CC(C)(C)OC(=O)N1CCN(c2ccc3nc(-c4cccs4)cn3n2)CC1
Second: O=CN(O)C(COCc1ccccc1)CS(=O)(=O)N1CCN(c2cc(Cl)ncn2)CC1 (stereo not given)
The melting point of the first is higher: 165 to 167 °C for the first, 118 to 120 °C for the second.

First: COc1ccc2c(CCCC(=O)O)nnc(-c3nccs3)c2c1
Second: CCCc1cc(C(O)=S)cc(N)c1Oc1ccccc1
The melting point of the first is higher: 218 to 220 °C for the first, 136 to 138 °C for the second.

First: CC(C)CNc1cccc(-c2ccnc3c(C(=O)c4cccs4)cnn23)c1
Second: O=C(c1ccccc1)c1cnn2c(-c3ccncc3)ccnc12
The melting point of the first is higher: 186 to 188 °C for the first, 185 to 186 °C for the second.

First: BrC(Br)Cc1cccc2[nH]c(-c3ccccc3)cc12
Second: Fc1ccc(CC(c2ccccc2)C(F)(F)F)cc1 (stereo not given)
The melting point of the first is lower: 106 °C for the first, 143 to 145 °C for the second.

Compared with `Cc1ccc2c(c1)CNCC2c1ccc(O)c(O)c1` (stereo not given), `Cc1cccc(OC(=O)N2CCCC2=O)c1` is lower in melting point: 192 to 195 °C for the first, 58 to 59 °C for the second.

Compared with `O=C(F)c1c(Cl)ccc2cc(C(F)(F)F)cnc12`, `O=C(O)c1ccc(-c2nc(-c3ccc(C(F)(F)F)cc3)no2)cc1` is higher in melting point: 98 to 99 °C for the first, 293 to 294 °C for the second.

First: Cc1ccc(Cc2cnc(NCCCNc3ncccc3Cl)[nH]c2=O)cn1
Second: CCCCc1nc(C(F)(F)F)c(CO)n1Cc1ccc(-c2ccccc2C#N)cc1
The melting point of the first is lower: 91 to 94 °C for the first, 136 to 138 °C for the second.

First: CN(C)Cc1nnc2n1-c1ccc(Cl)cc1C(c1ccccc1)=[N+]([O-])C2
Second: NC(=O)c1cnc2c(cc([N+](=O)[O-])c3nncc32)c(-c2ccccc2Cl)n1
The melting point of the first is lower: 217 to 219 °C for the first, > 340 °C for the second.

First: c1cn(-c2ccc(N3CCNCC3)cc2)cn1
Second: OCCOc1cccc(-n2ccnc2)c1
The melting point of the first is higher: 177 to 180 °C for the first, 81 to 83 °C for the second.

First: C=Cc1cc(O)cc2nc(-c3ccc(O)cc3F)oc12
Second: O=C1NC(=O)C(Cc2ccc3oc(Cc4ccc(O)cc4)nc3c2)S1 (stereo not given)
The melting point of the first is higher: 274 to 275 °C for the first, 201 to 204 °C for the second.

First: O=C(O)CS(=O)(=O)C12CC3CC(CC(C3)C1)C2
Second: Cc1oc(C2CCCCC2)nc1C(=O)O
The melting point of the first is lower: 158 to 162 °C for the first, 173 to 174 °C for the second.

Compared with `CC(C)C(NC(=O)Cn1cccc(NC(=O)Oc2ccc(Cl)cc2)c1=O)C(=O)C(F)(F)F` (stereo not given), `Cc1cccc(NC(=O)NCC(=O)N(CC(=O)N2CCc3ccccc32)c2ccccc2)c1` is higher in melting point: 137 to 139 °C for the first, 190 °C for the second.

First: COc1ccc2nc(CN(CCN(Cc3ccc4cc(OC)ccc4n3)Cc3ccc4cc(OC)ccc4n3)Cc3ccc4cc(OC)ccc4n3)ccc2c1
Second: CCCCN(Cc1ccc(-c2ccccc2-c2nnnn2C(c2ccccc2)(c2ccccc2)c2ccccc2)cc1)c1nc(C)ncc1C(=O)OCC
The melting point of the first is higher: 168 to 170 °C for the first, 130 to 132 °C for the second.

First: COc1cccc(Cn2c(=O)c3c(N4CCN(C)CC4)cc(Cl)cc3n(Cc3ccccc3)c2=O)c1
Second: O=C(Oc1cccc(Cl)c1)c1ncn2c1[C@@H]1CCCN1C(=O)c1c(Cl)cccc1-2
The melting point of the first is lower: 98 to 110 °C for the first, 194 to 195 °C for the second.

Compared with `COc1ccc(N2CCN(c3c(C)c(C)c4c(c3C)C(c3ccc(OC(F)(F)F)cc3)C(C)(C)O4)CC2)cc1` (stereo not given), `CCOC(=O)C1=C(COCCn2c(C)nc3ccccc32)NC2=C(C(=O)C(C)(C)CC2)C1c1ccccc1Cl` (stereo not given) is lower in melting point: 147 to 148 °C for the first, 118 to 120 °C for the second.

Compared with `O=C(CCNC(=O)[C@H](Cc1ccc(-c2ccccc2)cc1)NCP(=O)(Oc1ccccc1)Oc1ccccc1)Oc1ccc2c(c1)CCC2`, `CN(C(=O)CCl)C1(c2ccccc2)Cc2ccccc2C1` is higher in melting point: 89 to 91 °C for the first, 134 to 137 °C for the second.

First: CN(CCNCc1ccccc1)Cc1ccccc1
Second: c1ccc(CSc2cnccn2)cc1
The melting point of the first is higher: 83 to 84 °C for the first, 65 to 67 °C for the second.

First: O=C(O)C1CCc2sc3ccccc3c2C1 (stereo not given)
Second: Nc1c2c(nc3ccccc13)CCC2
The melting point of the first is higher: 202 to 203 °C for the first, 180 to 182 °C for the second.

First: Cc1c(Sc2ccc(Cl)cc2)nn(-c2cccc(Cl)c2)c(=O)c1C#N
Second: O=c1c(Oc2ccc(-c3ccncc3)cc2)c(-n2ccnc2)cnn1-c1ccc(Cl)cc1
The melting point of the first is lower: 150 to 151 °C for the first, 188 °C for the second.

First: Cc1c(C)c2c(c(C)c1N)CC(C)(CSCCC(=O)O)O2 (stereo not given)
Second: CCOCCc1cc(C)c(OCCN2C(C)C(Br)=C(C(N)=O)N2C)c(C)c1 (stereo not given)
The melting point of the first is higher: 139 to 140 °C for the first, 112 to 114 °C for the second.

First: Cc1cccc(CON2C(C)(C)CC(OC(=O)c3ccccc3)CC2(C)C)c1
Second: Cc1cccc(NC(=O)NC2CN(CC(=O)N3CC4CCC(CC4)C3)c3c(C)cccc3C(c3ccccc3F)=N2)c1 (stereo not given)
The melting point of the first is lower: 64 to 65 °C for the first, 246 to 247 °C for the second.

First: CCCCCCCCCCCCCCCCC(N)CO (stereo not given)
Second: C(=C\c1nc(COc2ccc(CCCCCCn3ccnc3)cc2)co1)/c1ccccc1
The melting point of the first is lower: 80.8 to 81.9 °C for the first, 108 to 109 °C for the second.

First: CC(=O)NS(=O)(=O)c1cccc(-c2cccc(-c3cc(-c4ccc(C(F)(F)F)cc4)cc(C)n3)n2)c1
Second: CC1(C)CC(=O)Nc2cc3nc(-c4ccc(S(=O)(=O)O)cc4)[nH]c3cc21
The melting point of the first is lower: 244 °C for the first, > 300 °C for the second.

First: CC[C@H](C1CC1)n1cc(Cl)nc(N2CCc3cc(Br)cc(Cl)c32)c1=O
Second: Cc1nn(C)c2nc(N(CC3CC3)C(=O)C3CC3)c(CN(Cc3cc(C(F)(F)F)cc(C(F)(F)F)c3)c3nnn(C)n3)cc12
The melting point of the first is higher: 126 to 127 °C for the first, 120 to 122 °C for the second.

First: CC1(C)CCC(C)(C)c2nc(C(=O)CBr)cnc21
Second: C[Si](C)(C)CCc1nnc(N)nc1N
The melting point of the first is higher: > 300 °C for the first, 203 to 204 °C for the second.

Compared with `NS(=O)(=O)c1ccccc1C1CCOC1=O` (stereo not given), `Cn1ncnc1COc1nn2c(-c3ccccc3F)nnc2cc1C1CCCO1` (stereo not given) is lower in melting point: 141 to 146 °C for the first, 136 to 139 °C for the second.

First: Fc1ccc(Cn2c(OC3CCNCC3)nc3cncnc32)cc1
Second: Cc1c(SCc2ccco2)ccnc1CSc1ccncc1
The melting point of the first is lower: 79.3 °C for the first, 126 to 128 °C for the second.

First: N#Cc1coc(CBr)c1
Second: Clc1cccc2c1sc1ncnn12
The melting point of the first is lower: 40 to 45 °C for the first, 203 °C for the second.

First: CCOP(=O)(C/C=C\CC1(C(=O)NCC(F)(F)F)c2ccccc2-c2ccccc21)OCC
Second: COC(=O)c1ccc(Cc2cn(CC(=O)N(C)C)c3ccc(NC(=O)CC4CCCC4)cc23)c(OC)c1
The melting point of the first is lower: 88 to 91 °C for the first, 129 to 132 °C for the second.
